This is an account of results in article PMC7756583, “Hydroxamic Acids Immobilized on Resins (HAIRs): Synthesis of Dual‐Targeting HDAC Inhibitors and HDAC Degraders (PROTACs)” (Angewandte Chemie (International Ed. in English), 2020).

Test [1] has as its target T1, HDAC1 (Homo sapiens, UniProt Q13547). Description: In-vitro human HDAC1 fluorogenic inhibition assay (ZMAL substrate). The test is classed as biochemical. To be noted: fluorogenic assay; n≥2, each in duplicate wells; read-out: Target Inhibition IC50 HDAC1.
Test [2] relates to α-tubulin acetylation (marker of reduced HDAC6 activity). In words: Immunoblot, acetylated α-tubulin in HL60 cells. It counts as cell-based. A general note: A western blot detects proteins with antibodies after separation by electrophoresis.
For test [3], the target named is human recombinant HDAC3 (Homo sapiens, UniProt O15379). In words: In-vitro human HDAC3 fluorogenic inhibition assay (ZMAL substrate). The test is classed as biochemical. To be noted: n≥2, each in duplicate wells; read-out: HDAC Inhibition IC50 HDAC 3.
human recombinant HDAC3, sequence (O15379 whole entry): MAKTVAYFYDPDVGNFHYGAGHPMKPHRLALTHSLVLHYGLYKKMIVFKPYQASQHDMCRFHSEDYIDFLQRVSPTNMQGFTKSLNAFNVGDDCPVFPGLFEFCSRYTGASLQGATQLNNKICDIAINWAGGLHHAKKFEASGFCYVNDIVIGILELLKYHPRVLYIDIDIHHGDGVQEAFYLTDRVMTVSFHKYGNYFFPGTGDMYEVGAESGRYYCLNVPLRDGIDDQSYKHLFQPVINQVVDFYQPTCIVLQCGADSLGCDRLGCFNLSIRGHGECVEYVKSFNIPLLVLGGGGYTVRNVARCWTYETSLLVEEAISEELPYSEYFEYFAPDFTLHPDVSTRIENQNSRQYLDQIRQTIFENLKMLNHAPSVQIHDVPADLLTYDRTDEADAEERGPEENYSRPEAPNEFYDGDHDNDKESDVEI
human recombinant HDAC3, sequence (Q9Y618 395-489 partner limits assumed): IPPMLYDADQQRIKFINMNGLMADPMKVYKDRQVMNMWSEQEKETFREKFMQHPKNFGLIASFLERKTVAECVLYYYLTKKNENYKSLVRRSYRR
Test [4] has as its target T2, HDAC8 recombinant enzyme (Homo sapiens, UniProt Q9BY41).
T2 sequence (Q9BY41 1-377): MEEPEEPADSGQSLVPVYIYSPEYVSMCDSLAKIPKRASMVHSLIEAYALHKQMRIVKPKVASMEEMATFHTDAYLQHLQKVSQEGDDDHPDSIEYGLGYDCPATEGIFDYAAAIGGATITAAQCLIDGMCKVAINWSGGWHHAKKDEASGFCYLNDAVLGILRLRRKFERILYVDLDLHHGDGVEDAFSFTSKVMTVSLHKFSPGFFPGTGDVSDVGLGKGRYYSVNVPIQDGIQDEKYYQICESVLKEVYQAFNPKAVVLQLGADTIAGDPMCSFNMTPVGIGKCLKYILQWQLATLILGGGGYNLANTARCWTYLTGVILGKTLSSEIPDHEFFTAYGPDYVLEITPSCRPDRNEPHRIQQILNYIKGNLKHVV
In words: In-vitro human HDAC8 assay (Boc-Lys-(TFa)-AMC substrate). It counts as biochemical. To be noted: read-out: HDAC Inhibition IC50 HDAC 8.

For test [5], the target named is T3, HDAC6 (Homo sapiens, UniProt Q9UBN7).
T3 sequence (Q9UBN7 1-1215): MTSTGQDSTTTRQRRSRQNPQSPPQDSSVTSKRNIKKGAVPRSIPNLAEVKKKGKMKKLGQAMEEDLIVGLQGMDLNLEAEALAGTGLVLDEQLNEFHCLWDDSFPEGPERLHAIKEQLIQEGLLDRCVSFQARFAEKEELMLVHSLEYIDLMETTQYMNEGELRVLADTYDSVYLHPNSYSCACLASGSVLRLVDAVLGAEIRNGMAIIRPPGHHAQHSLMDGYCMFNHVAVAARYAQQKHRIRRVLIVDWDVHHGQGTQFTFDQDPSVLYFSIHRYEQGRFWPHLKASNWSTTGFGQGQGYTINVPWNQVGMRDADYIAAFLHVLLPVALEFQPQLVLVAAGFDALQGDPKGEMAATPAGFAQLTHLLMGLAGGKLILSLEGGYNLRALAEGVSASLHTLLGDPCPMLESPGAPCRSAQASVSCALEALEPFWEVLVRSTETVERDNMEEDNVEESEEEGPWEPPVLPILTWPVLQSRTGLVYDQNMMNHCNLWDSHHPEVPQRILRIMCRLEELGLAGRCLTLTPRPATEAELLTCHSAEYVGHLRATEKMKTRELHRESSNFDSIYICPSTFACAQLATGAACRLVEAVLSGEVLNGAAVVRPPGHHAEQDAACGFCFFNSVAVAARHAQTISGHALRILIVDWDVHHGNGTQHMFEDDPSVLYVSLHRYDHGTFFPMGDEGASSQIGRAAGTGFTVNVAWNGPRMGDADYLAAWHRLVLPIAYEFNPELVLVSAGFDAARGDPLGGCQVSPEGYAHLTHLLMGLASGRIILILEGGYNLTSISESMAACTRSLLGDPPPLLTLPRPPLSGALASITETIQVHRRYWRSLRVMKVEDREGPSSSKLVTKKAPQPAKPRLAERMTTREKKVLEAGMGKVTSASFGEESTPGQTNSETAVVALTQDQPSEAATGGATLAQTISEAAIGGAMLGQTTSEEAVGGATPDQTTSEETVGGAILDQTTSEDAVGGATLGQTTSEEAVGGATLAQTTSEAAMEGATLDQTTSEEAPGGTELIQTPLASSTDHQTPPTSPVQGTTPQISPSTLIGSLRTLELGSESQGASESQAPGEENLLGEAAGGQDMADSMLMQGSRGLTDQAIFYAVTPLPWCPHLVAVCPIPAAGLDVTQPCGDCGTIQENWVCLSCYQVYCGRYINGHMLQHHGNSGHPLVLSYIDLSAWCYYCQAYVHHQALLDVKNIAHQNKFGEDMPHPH
Description: In-vitro human HDAC6 fluorogenic inhibition assay (ZMAL substrate). It counts as biochemical. Conditions: fluorogenic assay; n≥2, each in duplicate wells; read-out: Target Inhibition IC50 HDAC6.

For test [6], the target named is T1, HDAC1. Description: Immunoblot, HDAC1 degradation in HL60 cells. The test is classed as cell-based. Conditions: 0.1 μM, 1 μM and 10 μM, 48 hours.
The subject of test [7] is histone H3 acetylation (marker of reduced HDAC1-3 activity). Description: Immunoblot, acetyl histone H3 in HL60 cells. It counts as cell-based.
Test [8] has as its target T3, HDAC6. In words: Immunoblot, HDAC6 degradation in HL60 cells. The test is classed as cell-based. Conditions: 0.1 μM, 1 μM and 10 μM, 48 hours.
For test [9], the target named is human recombinant HDAC2 (Homo sapiens, UniProt Q92769). Description: In-vitro human HDAC2 fluorogenic inhibition assay (ZMAL substrate). It counts as biochemical. Conditions: n≥2, each in duplicate wells; read-out: HDAC Inhibition IC50 HDAC 2.
human recombinant HDAC2, sequence (Q92769 whole entry): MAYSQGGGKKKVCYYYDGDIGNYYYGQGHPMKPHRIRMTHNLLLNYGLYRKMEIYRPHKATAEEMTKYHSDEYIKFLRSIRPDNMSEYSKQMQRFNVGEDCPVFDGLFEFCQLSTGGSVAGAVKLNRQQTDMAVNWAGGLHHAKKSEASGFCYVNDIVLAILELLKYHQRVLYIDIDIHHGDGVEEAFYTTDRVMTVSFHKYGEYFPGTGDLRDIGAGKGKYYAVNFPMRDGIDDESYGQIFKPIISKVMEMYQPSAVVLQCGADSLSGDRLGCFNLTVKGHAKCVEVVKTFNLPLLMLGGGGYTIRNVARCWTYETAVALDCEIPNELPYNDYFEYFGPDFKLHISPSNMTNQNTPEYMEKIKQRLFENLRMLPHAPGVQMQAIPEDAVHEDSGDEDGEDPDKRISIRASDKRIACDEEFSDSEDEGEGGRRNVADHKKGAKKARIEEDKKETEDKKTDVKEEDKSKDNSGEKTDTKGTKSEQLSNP

The IC50 is the concentration at which inhibition is half-maximal.

T1 sequence (Q13547 whole entry): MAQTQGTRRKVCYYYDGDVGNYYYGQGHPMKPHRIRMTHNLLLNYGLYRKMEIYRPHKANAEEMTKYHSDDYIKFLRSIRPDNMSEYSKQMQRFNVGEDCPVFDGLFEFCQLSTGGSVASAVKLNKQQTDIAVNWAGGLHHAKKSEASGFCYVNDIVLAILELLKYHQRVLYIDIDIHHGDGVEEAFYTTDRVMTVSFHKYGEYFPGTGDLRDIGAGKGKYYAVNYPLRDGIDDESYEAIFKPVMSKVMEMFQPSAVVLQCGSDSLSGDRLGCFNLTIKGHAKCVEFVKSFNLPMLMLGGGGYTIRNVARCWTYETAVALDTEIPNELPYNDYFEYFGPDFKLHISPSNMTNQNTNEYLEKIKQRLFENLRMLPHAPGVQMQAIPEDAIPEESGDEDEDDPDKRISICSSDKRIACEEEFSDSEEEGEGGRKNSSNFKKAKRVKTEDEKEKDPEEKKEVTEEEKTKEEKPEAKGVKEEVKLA

With `O=C(CCCCCCNC(=O)c1ccc(NC(=O)COCCOCCNC(=O)COc2cccc3c2C(=O)N(C2CCC(=O)NC2=O)C3=O)cc1)NO` (stereo not drawn) [PROTAC 4], the IC50 in test [1] came out at 174 ± 9 nM; in [3], 159 ± 31 nM; in test [4], 3420 ± 320 nM; in [5], 27 nM; in [9], 248 ± 49 nM. Moreover, in [2], the “acetylation of α-tubulin” value was “significant hyperacetylation”. For the same molecule, in test [6], the “HDAC1 degradation (Western blot)” value is given as “also HDAC1 in a concentration dependent manner”. For the same molecule, the “acetylation of histone H3” value in test [7] was “significant hyperacetylation”. Besides, the “HDAC6 degradation (Western blot)” value in test [8] was “able to degrade especially HDAC6”.
